Holding throughout (type): biochemical
One assay concerns the target T1, DDX1 (Homo sapiens, UniProt Q92499).
T1 sequence (Q92499 1-740): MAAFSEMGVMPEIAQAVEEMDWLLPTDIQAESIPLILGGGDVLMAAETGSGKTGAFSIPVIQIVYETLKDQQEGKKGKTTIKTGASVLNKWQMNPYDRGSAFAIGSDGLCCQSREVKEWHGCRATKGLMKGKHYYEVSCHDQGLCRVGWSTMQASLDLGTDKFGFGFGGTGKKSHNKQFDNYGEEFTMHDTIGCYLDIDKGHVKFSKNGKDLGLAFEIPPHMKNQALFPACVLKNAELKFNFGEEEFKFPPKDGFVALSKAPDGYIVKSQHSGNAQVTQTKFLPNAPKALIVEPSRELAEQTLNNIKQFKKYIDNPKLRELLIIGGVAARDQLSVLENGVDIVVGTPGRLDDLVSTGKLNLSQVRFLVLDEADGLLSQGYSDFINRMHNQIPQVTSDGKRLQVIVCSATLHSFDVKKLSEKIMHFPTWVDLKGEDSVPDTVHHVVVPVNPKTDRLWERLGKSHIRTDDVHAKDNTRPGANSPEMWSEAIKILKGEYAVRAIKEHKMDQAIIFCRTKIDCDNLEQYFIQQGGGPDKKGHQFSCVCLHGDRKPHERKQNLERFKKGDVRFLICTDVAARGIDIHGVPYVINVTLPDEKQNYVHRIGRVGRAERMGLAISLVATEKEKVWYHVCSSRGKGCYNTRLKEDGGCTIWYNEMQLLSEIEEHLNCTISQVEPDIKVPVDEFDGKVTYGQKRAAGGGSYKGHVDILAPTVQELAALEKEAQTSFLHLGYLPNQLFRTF
Kind of assay: DDX1 helicase activity inhibition. The conditions noted are these: for IC50: helicase activity of DDX1, read-out: DDX1 IC50 ± SD. The source says:
(§1) To confirm the proposed mechanism of action and the selectivity of our compounds for the helicase binding site, we tested the capability of BA103 to inhibit the ATPase activity of DDX3X and the helicase activity of DDX1, which is another human member of the DEAD-box family.

The next assay concerns the target T2, DDX3X helicase activity (Homo sapiens, UniProt O00571).
T2 construct: Recombinant his-tagged human full length DDX3X; His tag; made in house; host or cells: ShuffleT7 E. coli
Kind of assay: FRET-based DDX3X helicase assay. The conditions noted are these: FRET helicase assay, recombinant DDX3X; for IC50: read-out: IC50 ± SD, DDX3X anti-enzymatic (helicase) activity. As for the experimental part:
Recombinant his-tagged human full length DDX3X cloned the E. coli expression vector pET-30a(+). ShuffleT7 E. coli cells were transformed with the plasmid and grown at 37 °C up to OD600 = 0.7. DDX3X expression was induced with 0.5 mM IPTG at 15 °C O/N. Cells were harvested by centrifugation, lysed, and the crude extract was centrifuged at 100,000 g for 60 min at 4 °C in a Beckman centrifuge before being loaded onto a FPLC Ni-NTA column (GE Healthcare, Chicago, IL, USA). The column was equilibrated in Buffer A (50 mM Tris-HCl pH 8.0, 250 mM NaCl, 25 mM Imidazole and 20% glycerol). After extensive washing in Buffer A, the column was eluted with a linear gradient in Buffer A from 25 to 250 mM Imidazole. Proteins in the eluted fractions were visualized on SDS-PAGE and tested for the presence of DDX3X by Western blot with anti-DDX3X A300-475A (Bethyl Laboratories, Montgomery, TX, USA) at 1:4000 dilution in 5% milk. Fractions containing the purest DDX3X protein were pooled and stored at −80 °C.
The dsRNA substrate for the helicase assay was prepared by hybridizing two ss RNA oligonucleotides with the following sequences: • Fluo-FAM 5′ […] 3′ • Qu-BHQ1 5′ […] 3′ • DNA capture 5′ […] 3′.
The sequence in Fluo-FAM complementary to Qu-BHQ1 is underlined. Fluo-FAM carries a 6-carboxyfluorescein fluorophore at its 3′ end, while Qu-BHQ1 carries a Black Hole quencher group at its 5′ end. The DNA capture oligonucleotide is complementary to the Qu-BHQ1 oligonucleotide, but it bears no modifications. A helicase assay using the dsRNA substrate was performed in 20 mM TrisHCl (pH 8), 70 mM KCl, 2 mM MgCl2, 2 mM dithiothreititol, 12 units RNasin (Promega), 2 mM ATP, 50 nM dsRNA, and 100 nM capture strand in 20 μL of reaction volume. The unwinding reaction was started by adding 60 pmols of DDX3X recombinant protein and carried out at 37 °C for 40 min using a LightCycler 480 (Roche, Basel, Switzerland). The fluorescence intensity was recorded every 30 s. Values of fluorescence signal in the presence or in the absence of inhibitor molecules were analyzed by linear interpolation, and the corresponding slope values were used to determine the apparent unwinding rate.
The IC50 values have been calculated from dose–response curves. Data (in triplicate) were plotted and analyzed by least-squares nonlinear regression, according to the method of Marquardt–Levenberg, with the computer program GraphPad Prism 6.0. Data were fitted to the following equation:Eobs = Emax/(1 + (IC50/[I])^n)(1) where E(obs) is the observed enzymatic activity in the presence of each inhibitor dose [I]; E(max) is the maximal enzymatic activity in the absence of the inhibitor; and n is an exponential term to take into account sigmoidal dose–response curves.
All the compounds were tested for their ability to inhibit the helicase activity of DDX3X using a fluorescence resonance energy transfer (FRET)-based assay, as previously described. Values of fluorescence signal in the presence or in the absence of inhibitor molecules were analyzed by linear interpolation (for details, see Methods 2.3.2).

Another assay concerns the target T3, ATPase DDX3X (Homo sapiens, UniProt O00571).
T3 construct: Recombinant his-tagged human full length DDX3X; His tag; made in house; host or cells: ShuffleT7 E. coli
Kind of assay: DDX3X ATPase activity inhibition. The conditions noted are these: for IC50: >200 = less than 20% inhibition at 200 µM, highest concentration tested, read-out: ATPase DDX3X IC50 ± SD.
Excerpt: as §1

T3 sequence (O00571 whole entry): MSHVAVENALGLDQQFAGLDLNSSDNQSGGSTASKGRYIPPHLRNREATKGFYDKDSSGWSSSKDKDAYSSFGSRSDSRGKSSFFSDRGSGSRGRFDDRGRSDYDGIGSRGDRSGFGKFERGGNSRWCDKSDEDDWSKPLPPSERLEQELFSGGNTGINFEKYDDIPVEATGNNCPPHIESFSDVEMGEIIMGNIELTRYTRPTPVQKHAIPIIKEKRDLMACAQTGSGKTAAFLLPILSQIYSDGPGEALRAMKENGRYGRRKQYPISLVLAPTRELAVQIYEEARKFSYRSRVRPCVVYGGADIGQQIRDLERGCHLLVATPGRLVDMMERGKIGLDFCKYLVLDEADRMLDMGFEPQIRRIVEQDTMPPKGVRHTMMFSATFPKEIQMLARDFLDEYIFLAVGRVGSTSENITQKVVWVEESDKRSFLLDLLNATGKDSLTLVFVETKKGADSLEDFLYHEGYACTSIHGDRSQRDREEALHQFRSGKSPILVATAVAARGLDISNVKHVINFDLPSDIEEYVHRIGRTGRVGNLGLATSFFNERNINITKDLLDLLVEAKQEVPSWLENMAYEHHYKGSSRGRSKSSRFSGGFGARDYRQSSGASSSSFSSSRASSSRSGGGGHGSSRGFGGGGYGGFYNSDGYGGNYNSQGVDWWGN
T2 sequence (O00571 whole entry): as above

Regarding `CC(C)CCc1cn(-c2ccc(NC(=O)Nc3cccc4cnccc34)cn2)nn1` [Compound 10, 1-(6-(4-Isopentyl-1H-1,2,3-triazol-1-yl)pyridin-3-yl)-3-(isoquinolin-5-yl)urea], on DDX1, the “SI (Selectivity Index)” value is given as more than 1000 and the half-maximal inhibitory concentration (IC50) was more than 100000 nM. Further, on DDX3X helicase activity, the “IC50 ± SD, DDX3X anti-enzymatic (helicase) activity” value (from here on “IC50 ± SD, DDX3X anti-enzymatic”) is “submicromolar range” and the IC50 was found to be 100 ± 30 nM.

Take `CCCCc1nnc(-c2ccc(NC(=O)Nc3ccccc3C(F)(F)F)cc2)[nH]1` [Compound 4, 1-(4-(5-Butyl-4H-1,2,4-triazol-3-yl)phenyl)-3-(2-(trifluoromethyl)phenyl)urea]: on DDX1, the “SI (Selectivity Index)” value came out at 418 and the IC50 was 29300 ± 16800 nM. Also, at DDX3X helicase activity, the “IC50 ± SD, DDX3X anti-enzymatic” value is on record as “submicromolar range” and the half-inhibitory concentration (IC50) worked out at 70 ± 20 nM.

On to `CCCCc1cn(-c2ccc(NC(=O)Nc3ccccc3C)cc2)nn1` [Compound 1, reference compound], for which the “SI (Selectivity Index)” value at DDX1 was more than 666. The values for the IC50 on DDX1, on ATPase DDX3X and on DDX3X helicase activity were more than 200000 nM, more than 200000 nM and 300 ± 70 nM, respectively.

Turning to `CCCCc1cn(-c2ccc(NC(=O)Nc3ccccc3C(F)(F)F)cc2)nn1` [BA103, 1-(4-(4-Butyl-1H-1,2,3-triazol-1-yl)phenyl)-3-(2-(trifluoromethyl)phenyl)urea], on DDX1, the “SI (Selectivity Index)” value was more than 250 and the concentration for half-maximal inhibition (IC50) was more than 100000 nM. Moreover, at ATPase DDX3X, the IC50 is more than 200000 nM. Moreover, the “inhibition of the ATPase activity of DDX3X” value on ATPase DDX3X (any compound concentration) is recorded as “no inhibition”. In addition, at DDX3X helicase activity, the “IC50 ± SD, DDX3X anti-enzymatic” value is “submicromolar range” and the half-maximal inhibitory concentration (IC50) worked out at 400 ± 50 nM.

As for `CCCCn1nnc(-c2ccc(NC(=O)Nc3ccccc3C(F)(F)F)cc2)n1` [Compound 6, 1-(4-(2-Butyl-2H-tetrazol-5-yl)phenyl)-3-(2-(trifluoromethyl)phenyl)urea], the “IC50 ± SD, DDX3X anti-enzymatic” value at DDX3X helicase activity is recorded as “submicromolar range”.

(Values after publication PMC8582824, “Targeting DDX3X Helicase Activity with BA103 Shows Promising Therapeutic Effects in Preclinical Glioblastoma Models” (Cancers, 2021).)
